Measurements taken from ChEMBL document CHEMBL4396937, “Synthesis of new triazole fused imidazo[2,1-b]thiazole hybrids with emphasis on Staphylococcus aureus virulence factors” (Bioorg Med Chem Lett, 2019).
Converted amounts (≈) assume the structure as drawn.

Assays:
Format in all cases: functional
Pseudomonas aeruginosa [1] = experiment: Bactericidal activity against Pseudomonas aeruginosa MTCC 2453 assessed as reduction in bacterial survival incubated for 24 hrs followed by transfer of microbial suspension to agar plates and measured at 24 hrs post transfer by agar well diffusion method; conditions: MTCC 2453, 24 h
Bacillus subtilis [2] = experiment: Bactericidal activity against Bacillus subtilis MTCC 121 assessed as reduction in bacterial survival incubated for 24 hrs followed by transfer of microbial suspension to agar plates and measured at 24 hrs post transfer by agar well diffusion method; conditions: MTCC 121, 24 h
Micrococcus luteus [3] = experiment: Bactericidal activity against Micrococcus luteus MTCC 2470 assessed as reduction in bacterial survival incubated for 24 hrs followed by transfer of microbial suspension to agar plates and measured at 24 hrs post transfer by agar well diffusion method; conditions: MTCC 2470, 24 h
Micrococcus luteus [4] = experiment: Antibacterial activity against Micrococcus luteus MTCC 2470 assessed as reduction in bacterial growth incubated for 24 hrs by agar well diffusion method; conditions: MTCC 2470, 24 h
Raoultella planticola [5] = experiment: Antibacterial activity against Klebsiella planticola MTCC 530 assessed as reduction in bacterial growth incubated for 24 hrs by agar well diffusion method; conditions: MTCC 530, 24 h
Escherichia coli [6] = experiment: Bactericidal activity against Escherichia coli MTCC 739 assessed as reduction in bacterial survival incubated for 24 hrs followed by transfer of microbial suspension to agar plates and measured at 24 hrs post transfer by agar well diffusion method; conditions: MTCC 739, 24 h
Candida albicans [7] = experiment: Antifungal activity against Candida albicans MTCC 3017 assessed as reduction in fungal growth incubated for 24 hrs by agar well diffusion method; conditions: MTCC 3017, 24 h
Staphylococcus aureus [8] = experiment: Bactericidal activity against Staphylococcus aureus MTCC 96 assessed as reduction in bacterial survival incubated for 24 hrs followed by transfer of microbial suspension to agar plates and measured at 24 hrs post transfer by agar well diffusion method; conditions: MTCC 96, 24 h
Raoultella planticola [9] = experiment: Bactericidal activity against Klebsiella planticola MTCC 530 assessed as reduction in bacterial survival incubated for 24 hrs followed by transfer of microbial suspension to agar plates and measured at 24 hrs post transfer by agar well diffusion method; conditions: MTCC 530, 24 h
Bacillus subtilis [10] = experiment: Antibacterial activity against Bacillus subtilis MTCC 121 assessed as reduction in bacterial growth incubated for 24 hrs by agar well diffusion method; conditions: MTCC 121, 24 h
Pseudomonas aeruginosa [11] = experiment: Antibacterial activity against Pseudomonas aeruginosa MTCC 2453 assessed as reduction in bacterial growth incubated for 24 hrs by agar well diffusion method; conditions: MTCC 2453, 24 h
Staphylococcus aureus [12] = experiment: Antibacterial activity against Staphylococcus aureus MTCC 96 assessed as reduction in bacterial growth incubated for 24 hrs by agar well diffusion method; conditions: MTCC 96, 24 h
Escherichia coli [13] = experiment: Antibacterial activity against Escherichia coli MTCC 739 assessed as reduction in bacterial growth incubated for 24 hrs by agar well diffusion method; conditions: MTCC 739, 24 h
Staphylococcus aureus [14] = experiment: Bactericidal activity against Staphylococcus aureus MLS-16 MTCC 2940 assessed as reduction in bacterial survival incubated for 24 hrs followed by transfer of microbial suspension to agar plates and measured at 24 hrs post transfer by agar well diffusion method; conditions: MLS-16 MTCC 2940, 24 h
Candida albicans [15] = experiment: Fungicidal activity against Candida albicans MTCC 3017 assessed as reduction in fungal survival incubated for 24 hrs followed by transfer of microbial suspension to agar plates and measured at 24 hrs post transfer by agar well diffusion method; conditions: MTCC 3017, 24 h
Staphylococcus aureus [16] = experiment: Antibacterial activity against Staphylococcus aureus MLS-16 MTCC 2940 assessed as reduction in bacterial growth incubated for 24 hrs by agar well diffusion method; conditions: MLS-16 MTCC 2940, 24 h

| MIC (Micrococcus luteus [4]) [mg/L] | MIC (Candida albicans [7]) [mg/L] | MIC (Bacillus subtilis [10]) [mg/L] | MIC (Pseudomonas aeruginosa [11]) [mg/L] | MIC (Staphylococcus aureus [12]) [mg/L] | MIC (Escherichia coli [13]) [mg/L] | MIC (Staphylococcus aureus [16]) [mg/L] | SMILES | MBC (Pseudomonas aeruginosa [1]) [mg/L] | MBC (Bacillus subtilis [2]) [mg/L] | MBC (Micrococcus luteus [3]) [mg/L] | MIC (Raoultella planticola [5]) [mg/L] | MBC (Escherichia coli [6]) [mg/L] | MBC (Staphylococcus aureus [8]) [mg/L] | MBC (Raoultella planticola [9]) [mg/L] | MBC (Staphylococcus aureus [14]) [mg/L] | MFC (Candida albicans [15]) [mg/L] |
| --- | --- | --- | --- | --- | --- | --- | --- | --- | --- | --- | --- | --- | --- | --- | --- | --- |
| 15.6 (≈ 31.7 µM) | 7.8 (≈ 15.9 µM) | 15.6 (≈ 31.7 µM) | > 125 | 15.6 (≈ 31.7 µM) | > 125 | 7.8 (≈ 15.9 µM) | COc1ccc(-c2nc3sccn3c2C(=O)c2cn(-c3cc(OC)c(OC)c(OC)c3)nn2)cc1 | > 125 | 31.2 (≈ 63.5 µM) | 31.2 (≈ 63.5 µM) | > 125 | > 125 | 31.2 (≈ 63.5 µM) | > 125 | 15.6 (≈ 31.7 µM) | 15.6 (≈ 31.7 µM) |
| > 125 | 15.6 (≈ 32.9 µM) | 15.6 (≈ 32.9 µM) | > 125 | > 125 | > 125 | > 125 | O=C(c1cn(-c2ccc(C(F)(F)F)cc2)nn1)c1c(-c2ccc(Cl)cc2)nc2sccn12 | > 125 | 31.2 (≈ 65.8 µM) | > 125 | > 125 | > 125 | > 125 | > 125 | > 125 | 15.6 (≈ 32.9 µM) |
| 3.9 (≈ 8.95 µM) | 7.8 (≈ 17.9 µM) | 3.9 (≈ 8.95 µM) | > 125 | 3.9 (≈ 8.95 µM) | > 125 | 7.8 (≈ 17.9 µM) | COc1ccc(-n2cc(C(=O)c3c(-c4ccc(Cl)cc4)nc4sccn34)nn2)cc1 | > 125 | 7.8 (≈ 17.9 µM) | 7.8 (≈ 17.9 µM) | 3.9 (≈ 8.95 µM) | > 125 | 7.8 (≈ 17.9 µM) | 7.8 (≈ 17.9 µM) | 15.6 (≈ 35.8 µM) | 15.6 (≈ 35.8 µM) |
| 7.8 (≈ 16.6 µM) | 7.8 (≈ 16.6 µM) | 15.6 (≈ 33.2 µM) | > 125 | 15.6 (≈ 33.2 µM) | > 125 | 15.6 (≈ 33.2 µM) | COc1ccc(-c2nc3sccn3c2C(=O)c2cn(-c3ccc(C(F)(F)F)cc3)nn2)cc1 | > 125 | 31.2 (≈ 66.5 µM) | 15.6 (≈ 33.2 µM) | > 125 | > 125 | 31.2 (≈ 66.5 µM) | > 125 | 31.2 (≈ 66.5 µM) | 15.6 (≈ 33.2 µM) |
| 3.9 (≈ 9.71 µM) | 15.6 (≈ 38.9 µM) | 3.9 (≈ 9.71 µM) | > 125 | 7.8 (≈ 19.4 µM) | > 125 | 7.8 (≈ 19.4 µM) | COc1ccc(-n2cc(C(=O)c3c(-c4ccccc4)nc4sccn34)nn2)cc1 | > 125 | 7.8 (≈ 19.4 µM) | 7.8 (≈ 19.4 µM) | 15.6 (≈ 38.9 µM) | > 125 | 15.6 (≈ 38.9 µM) | 31.2 (≈ 77.7 µM) | 15.6 (≈ 38.9 µM) | 31.2 (≈ 77.7 µM) |
| 15.6 (≈ 36.2 µM) | 15.6 (≈ 36.2 µM) | 7.8 (≈ 18.1 µM) | > 125 | 15.6 (≈ 36.2 µM) | > 125 | 7.8 (≈ 18.1 µM) | COc1ccc(-c2nc3sccn3c2C(=O)c2cn(-c3ccc(OC)cc3)nn2)cc1 | > 125 | 15.6 (≈ 36.2 µM) | 31.2 (≈ 72.3 µM) | 7.8 (≈ 18.1 µM) | > 125 | 31.2 (≈ 72.3 µM) | 15.6 (≈ 36.2 µM) | 15.6 (≈ 36.2 µM) | 31.2 (≈ 72.3 µM) |
| 3.9 (≈ 8.45 µM) | 15.6 (≈ 33.8 µM) | 3.9 (≈ 8.45 µM) | > 125 | 3.9 (≈ 8.45 µM) | > 125 | 7.8 (≈ 16.9 µM) | COc1cc(-n2cc(C(=O)c3c(-c4ccccc4)nc4sccn34)nn2)cc(OC)c1OC | > 125 | 7.8 (≈ 16.9 µM) | 7.8 (≈ 16.9 µM) | 31.2 (≈ 67.6 µM) | > 125 | 7.8 (≈ 16.9 µM) | 62.5 (≈ 135 µM) | 15.6 (≈ 33.8 µM) | 31.2 (≈ 67.6 µM) |
| 3.9 (≈ 7.76 µM) | 7.8 (≈ 15.5 µM) | 3.9 (≈ 7.76 µM) | > 125 | 3.9 (≈ 7.76 µM) | > 125 | 7.8 (≈ 15.5 µM) | O=C(c1cn(-c2ccc(F)cc2Br)nn1)c1c(-c2ccc(Cl)cc2)nc2sccn12 | > 125 | 7.8 (≈ 15.5 µM) | 7.8 (≈ 15.5 µM) | 3.9 (≈ 7.76 µM) | > 125 | 7.8 (≈ 15.5 µM) | 7.8 (≈ 15.5 µM) | 15.6 (≈ 31 µM) | 15.6 (≈ 31 µM) |
